Experimental data reported in publication PMC6928599, “Construction of a Robust Cofactor Self-Sufficient Bienzyme Biocatalytic System for Dye Decolorization and its Mathematical Modeling” (International Journal of Molecular Sciences, 2019).

Molecular target: CsTMR (triphenylmethane reductase) (Citrobacter sp. MY-5, UniProt Q2TNI4)
Test: decolorization in bienzyme fed-batch system; OD616 assay
Assay type: biochemical
Details: glucose 200 mM, NAD 1 mM, malachite green 3 µM, BzGDH for NADH regeneration, 25 °C; OD616 assay: 200 µM NADH, 20 µM malachite green, pH 7.0

CsTMR (triphenylmethane reductase), sequence (Q2TNI4 entry or part of it): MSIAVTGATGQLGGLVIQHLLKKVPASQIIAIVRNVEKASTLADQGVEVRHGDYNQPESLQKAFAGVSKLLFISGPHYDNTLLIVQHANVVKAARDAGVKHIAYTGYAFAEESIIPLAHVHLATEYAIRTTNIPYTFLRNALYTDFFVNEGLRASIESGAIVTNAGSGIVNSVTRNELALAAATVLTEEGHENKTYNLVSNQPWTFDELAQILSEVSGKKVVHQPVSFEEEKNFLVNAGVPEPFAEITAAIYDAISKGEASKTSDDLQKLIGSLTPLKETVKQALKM

`CN(C)c1ccc(C(=C2C=CC(=[N+](C)C)C=C2)c2ccccc2)cc1` [malachite green] was tested, and the “decolorization in bienzyme fed-batch system; OD616 assay” value was “The activity of CsTMR was assayed by monitoring the OD616 of malachite green”.
